{"source": "paper PMC8770261", "about": "“Automatic Production and Preliminary PET Imaging of a New Imaging Agent [^18F]AlF-FAPT” (Frontiers in Oncology, 2022)", "experiment": "Biological distribution in normal Kunming mice (γ counter, %ID/g)", "assay_type": "in vivo", "settings": "tail vein injection, 60 min", "procedure": "The biological distribution experiment of [^18F]AlF-FAPT was carried out in normal Kunming mice. Twenty Kunming mice were randomly and equally divided into four groups and each injected with 0.1 ml of [^18F]AlF-FAPT (1.48~2.22 MBq) through their tail vein. The mice were then sacrificed after 5, 30, 60, and 90 minutes, followed by weighing their organs and determining the radioactivity using a γ counter. The radioactivity of each organ was normalized using the percentage of injected dose per gram of tissue (% ID/g). [^18F]FAPI-42 also used the same method mentioned above to carry out the biological distribution at the time point of 60 minutes.", "data": [{"smiles": "N#C[C@@H]1CC(F)(F)CN1C(=O)CNC(=O)c1ccnc2ccc(OCCCN3CCN(C(=O)CN4CCN5CCN(CC4)CC(=O)[O][Al]([F])[O]C(=O)C5)CC3)cc12", "note": "[[^18F]FAPI-42]", "values": [{"measurement": "radioactivity uptake value in the gallbladder", "value": "7.30 ± 1.43", "unit": "%ID/g"}]}]}
